Reference: ChEMBL document CHEMBL1201862, “PubChem BioAssay data set” (2004)
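Grown in 96-well plates, cells were treated for 48 hours with each compound at five concentrations. Insufficient inhibition: endpoint recorded as highest concentration tested. Abbreviation: GI50, concentration required for 50% inhibition of growth.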 Activity calls are given as the source filed them. No stated cut-off is given here; in the data, active = GI50 up to about 1.1 µM and inactive = higher.

Columns and labels:
Experiment in all cases: inhibition of tumour cell growth, NCI panel, 48 h
UACC-62 = system: UACC-62
SK-MEL-5 = system: SK-MEL-5
COLO 205 = system: COLO 205
LOX IMVI = system: LOX IMVI
Malme-3M = system: Malme-3M
BT-549 = system: BT-549
SK-MEL-28 = system: SK-MEL-28
MDA-N = system: MDA-N
M14 = system: M14
NCI-H226 = system: NCI-H226
SNB-19 = system: SNB-19
RPMI-8226 = system: RPMI-8226
NCI-H23 = system: NCI-H23
MCF7 = system: MCF7
ACHN = system: ACHN
IGROV-1 = system: IGROV-1
TK-10 = system: TK-10
OVCAR-5 = system: OVCAR-5
SK-OV-3 = system: SK-OV-3
T47D = system: T47D
HOP-62 = system: HOP-62
NCI/ADR-RES = system: NCI/ADR-RES
HT-29 = system: HT-29
SW-620 = system: SW-620
UACC-257 = system: UACC-257
Hs-578T = system: Hs-578T
KM12 = system: KM12
OVCAR-4 = system: OVCAR-4
MOLT-4 = system: MOLT-4
SR = system: SR
HCT-15 = system: HCT-15
UO-31 = system: UO-31
SK-MEL-2 = system: SK-MEL-2
SF-295 = system: SF-295
OVCAR-8 = system: OVCAR-8
MDA-MB-231 = system: MDA-MB-231
A498 = system: A498
RXF 393 = system: RXF 393
SF-539 = system: SF-539
SN12C = system: SN12C
DU-145 = system: DU-145
SNB-75 = system: SNB-75
U-251 = system: U-251
786-0 = system: 786-0
K562 = system: K562
EKVX = system: EKVX
A549 = system: A549
NCI-H522 = system: NCI-H522
PC-3 = system: PC-3
CCRF-CEM = system: CCRF-CEM
HOP-92 = system: HOP-92
OVCAR-3 = system: OVCAR-3
NCI-H460 = system: NCI-H460
SF-268 = system: SF-268
HL-60 = system: HL-60
CAKI-1 = system: CAKI-1
HCT-116 = system: HCT-116
MDA-MB-435 = system: MDA-MB-435

How did the GI50 (UACC-62) turn out when NN/C(=N\S(=O)(=O)c1cc2ccccc2o1)Nc1ccc(Cl)cc1 was run?
Its GI50 is > 100 µM (inactive).

What about the GI50 (SK-MEL-5) of the same compound?
The GI50 was > 100 µM (inactive).

What about the GI50 (COLO 205) of the same compound?
The GI50 was > 100 µM (inactive).

What about the GI50 (LOX IMVI) of the same compound?
Its GI50 is > 100 µM (inactive).

And the GI50 (Malme-3M)?
Its GI50 is > 100 µM (inactive).

What about the GI50 (BT-549) of the same compound?
Its GI50 is 57.7 µM (inactive).

And the GI50 (SK-MEL-28)?
The GI50 was > 100 µM (inactive).

What about the GI50 (MDA-N) of the same compound?
Its GI50 is > 100 µM (inactive).

What about the GI50 (M14) of the same compound?
The GI50 was > 100 µM (inactive).

What about the GI50 (NCI-H226) of the same compound?
The GI50 was > 100 µM (inactive).

And the GI50 (SNB-19)?
The GI50 was 60.8 µM (inactive).

What about the GI50 (RPMI-8226) of the same compound?
The GI50 was > 100 µM (inactive).

What about the GI50 (NCI-H23) of the same compound?
The GI50 was > 100 µM (inactive).

What about the GI50 (MCF7) of the same compound?
The GI50 was > 100 µM (inactive).

And the GI50 (ACHN)?
The GI50 was > 100 µM (inactive).

What about the GI50 (IGROV-1) of the same compound?
The GI50 was 53 µM (inactive).

What about the GI50 (TK-10) of the same compound?
Its GI50 is 72.6 µM (inactive).

What about the GI50 (OVCAR-5) of the same compound?
The GI50 was > 100 µM (inactive).

What about the GI50 (SK-OV-3) of the same compound?
The GI50 was 42.8 µM (inactive).

What about the GI50 (T47D) of the same compound?
The GI50 was 28.2 µM (inactive).

What about the GI50 (HOP-62) of the same compound?
Its GI50 is 48.8 µM (inactive).

What about the GI50 (NCI/ADR-RES) of the same compound?
The GI50 was > 100 µM (inactive).

What about the GI50 (HT-29) of the same compound?
The GI50 was > 100 µM (inactive).

What about the GI50 (SW-620) of the same compound?
Its GI50 is > 100 µM (inactive).

What about the GI50 (UACC-257) of the same compound?
The GI50 was > 100 µM (inactive).

And the GI50 (Hs-578T)?
Its GI50 is 39.8 µM (inactive).

And the GI50 (KM12)?
The GI50 was > 100 µM (inactive).

What about the GI50 (OVCAR-4) of the same compound?
The GI50 was > 100 µM (inactive).

And the GI50 (MOLT-4)?
Its GI50 is > 100 µM (inactive).

What about the GI50 (SR) of the same compound?
Its GI50 is > 100 µM (inactive).

And the GI50 (HCT-15)?
The GI50 was greater than 100 µM.

And the GI50 (UO-31)?
Its GI50 is > 100 µM (inactive).

What about the GI50 (SK-MEL-2) of the same compound?
The GI50 was > 100 µM (inactive).

And the GI50 (SF-295)?
The GI50 was 63.5 µM (inactive).

What about the GI50 (OVCAR-8) of the same compound?
The GI50 was 51.1 µM (inactive).

And the GI50 (MDA-MB-231)?
Its GI50 is 67.9 µM (inactive).

And the GI50 (A498)?
The GI50 was > 100 µM (inactive).

What about the GI50 (RXF 393) of the same compound?
The GI50 was 20.7 µM (inactive).

What about the GI50 (SF-539) of the same compound?
The GI50 was > 100 µM (inactive).

What about the GI50 (SN12C) of the same compound?
Its GI50 is > 100 µM (inactive).

And the GI50 (DU-145)?
Its GI50 is > 100 µM (inactive).

And the GI50 (SNB-75)?
Its GI50 is 13.1 µM (inactive).

What about the GI50 (U-251) of the same compound?
Its GI50 is 46.6 µM (inactive).

And the GI50 (786-0)?
The GI50 was 44 µM (inactive).

What about the GI50 (K562) of the same compound?
The GI50 was > 100 µM (inactive).

And the GI50 (EKVX)?
The GI50 was 91.2 µM (inactive).

And the GI50 (A549)?
The GI50 was > 100 µM (inactive).

What about the GI50 (NCI-H522) of the same compound?
The GI50 was 24.4 µM (inactive).

And the GI50 (PC-3)?
Its GI50 is > 100 µM (inactive).

What about the GI50 (CCRF-CEM) of the same compound?
Its GI50 is 2.02 µM (inactive).

What about the GI50 (HOP-92) of the same compound?
Its GI50 is 20.4 µM (inactive).

What about the GI50 (OVCAR-3) of the same compound?
Its GI50 is 36.6 µM (inactive).

And the GI50 (NCI-H460)?
Its GI50 is > 100 µM (inactive).

And the GI50 (SF-268)?
The GI50 was 33.9 µM (inactive).

And the GI50 (HL-60)?
Its GI50 is > 100 µM (inactive).

And the GI50 (CAKI-1)?
Its GI50 is > 100 µM (inactive).

What about the GI50 (HCT-116) of the same compound?
Its GI50 is > 100 µM (inactive).

What does the source list for CCN(CC)/N=C\c1c2ccccc2cc2ccccc12?
GI50 (UACC-62): 53.6 µM (inactive); GI50 (SK-MEL-5): 21.8 µM (inactive); GI50 (COLO 205): 23.5 µM (inactive); GI50 (Malme-3M): 49.8 µM (inactive); GI50 (BT-549): 84.7 µM (inactive); GI50 (SK-MEL-28): 11.9 µM (inactive); GI50 (MDA-N): 39 µM (inactive); GI50 (M14): 22 µM (inactive); GI50 (SNB-19): > 100 µM (inactive); GI50 (RPMI-8226): 30.5 µM (inactive); GI50 (NCI-H23): 58.9 µM (inactive); GI50 (ACHN): 96.8 µM (inactive); GI50 (IGROV-1): 39.4 µM (inactive); GI50 (TK-10): 55 µM (inactive); GI50 (OVCAR-5): 37.5 µM (inactive); GI50 (SK-OV-3): > 100 µM (inactive); GI50 (T47D): 42.7 µM (inactive); GI50 (MDA-MB-435): 34.7 µM (inactive); GI50 (NCI/ADR-RES): 79.4 µM (inactive); GI50 (HT-29): 25 µM (inactive); GI50 (SW-620): 29 µM (inactive); GI50 (UACC-257): 27.9 µM (inactive); GI50 (Hs-578T): 48 µM (inactive); GI50 (KM12): 30.8 µM (inactive); GI50 (OVCAR-4): 54.3 µM (inactive); GI50 (MOLT-4): 21 µM (inactive); GI50 (SR): 26.6 µM (inactive); GI50 (HCT-15): 34.6 µM; GI50 (UO-31): 48.8 µM (inactive); GI50 (SK-MEL-2): 27.9 µM (inactive); GI50 (SF-295): 39 µM (inactive); GI50 (OVCAR-8): 61.8 µM (inactive); GI50 (MDA-MB-231): 24.9 µM (inactive); GI50 (A498): 41 µM (inactive); GI50 (RXF 393): 17.7 µM (inactive); GI50 (SF-539): > 100 µM (inactive); GI50 (SN12C): 48.5 µM (inactive); GI50 (DU-145): 82 µM (inactive); GI50 (SNB-75): 18.3 µM (inactive); GI50 (U-251): 24.5 µM (inactive); GI50 (786-0): 44.2 µM (inactive); GI50 (K562): 44.9 µM (inactive); GI50 (EKVX): 38.4 µM (inactive); GI50 (A549): 41.6 µM (inactive); GI50 (NCI-H522): 21 µM (inactive); GI50 (PC-3): 41.1 µM (inactive); GI50 (CCRF-CEM): 31.3 µM (inactive); GI50 (HOP-92): 24.4 µM (inactive); GI50 (NCI-H460): 30.7 µM (inactive); GI50 (SF-268): 72.8 µM (inactive); GI50 (HL-60): 31.7 µM (inactive); GI50 (CAKI-1): 33 µM (inactive); GI50 (HCT-116): 31.8 µM (inactive)
